# Data as given in patent US20230114728A1 (Venatorx Pharmaceuticals, Inc., priority 2019, published 2023).
# Assays:
# Assay type in all cases: cell-based
# [1] = system: N. gonorrhoeae H041; assay: Liquid broth MIC in Fastidious broth; settings: Neisseria gonorrhoeae, H041, read-out: Minimum Inhibitory Concentration, H041
# Outline: (§1)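 Broth microdilution against gonococcal strains expressing mosaic PBP2, starting inoculum 5×10^5 CFU/mL in Fastidious broth. Incubation runs ~24 h at 36 °C under 5% CO2, with MIC scored visually at <10% of full growth.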
# [2] = system: N. gonorrhoeae WHO Z; assay: Liquid broth MIC in Fastidious broth; settings: Neisseria gonorrhoeae, read-out: Minimum Inhibitory Concentration, WHO Z
# Outline: as §1
# [3] = system: N. gonorrhoeae WHO L; assay: Liquid broth MIC in Fastidious broth; settings: Neisseria gonorrhoeae; N. gonorrhoeae WHO L; Fastidious broth; read-out: Minimum Inhibitory Concentration, WHO L
# Outline: (§2)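 Colonies were swabbed from chocolate agar after 24 h growth and standardised by optical density at 600 nm. Compounds were serially diluted twofold in Fastidious broth, and bacteria added to give 5×10^5 CFU/mL. After about 24 h at 36 °C in 5% CO2, the lowest concentration allowing under 10% growth was taken as MIC.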
# [4] = system: N. gonorrhoeae WHO G; assay: Liquid broth MIC in Fastidious broth; settings: Neisseria gonorrhoeae; N. gonorrhoeae WHO G; Fastidious broth; read-out: Minimum Inhibitory Concentration, WHO G
# Outline: as §2
# [5] = system: N. gonorrhoeae WHO Q; assay: Liquid broth MIC in Fastidious broth; settings: Neisseria gonorrhoeae, read-out: Minimum Inhibitory Concentration, WHO Q
# Outline: as §1
# [6] = system: N. gonorrhoeae ATCC 49226; assay: Liquid broth MIC in Fastidious broth; settings: Neisseria gonorrhoeae, ATCC49226; N. gonorrhoeae ATCC 49226; Fastidious broth; read-out: Minimum Inhibitory Concentration, ATCC 49226
# Outline: as §2
# [7] = system: N. gonorrhoeae FA1090; assay: Liquid broth MIC in Fastidious broth; settings: Neisseria gonorrhoeae; N. gonorrhoeae FA1090; Fastidious broth; read-out: Minimum Inhibitory Concentration, FA1090
# Outline: as §2
# [8] = system: N. gonorrhoeae WHO K; assay: Liquid broth MIC in Fastidious broth; settings: Neisseria gonorrhoeae, read-out: Minimum Inhibitory Concentration, WHO K
# Outline: as §1
# [9] = system: P. aeruginosa (ΔmexAB-oprM); assay: Broth microdilution MIC in CAMHB; settings: Pseudomonas aeruginosa, read-out: Minimum Inhibitory Concentration, P. aeruginosa ΔmexAB-OprM
# Outline: (§3)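 Lowest compound concentration with no visible growth after 16-20 h at 37 °C defines MIC. Plates of 2-fold serial dilutions in cation-adjusted Mueller Hinton broth received 2-8×10^5 CFU/mL of exponentially grown cells, per CLSI methods; panel spans reference, hyper-permeable and efflux-pump-deleted strains.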
# [10] = system: E. coli 901C; assay: Broth microdilution MIC in CAMHB; settings: Escherichia coli; E. coli 901C (hyper-permeable); MHB; read-out: Minimum Inhibitory Concentration, E. coli 901C
# Outline: as §3
# [11] = system: A. baumannii ATCC 19606; assay: Broth microdilution MIC in CAMHB; settings: Acinetobacter baumannii, ATCC19606; MHB; read-out: Minimum Inhibitory Concentration, A. baumannii ATCC 19606
# Outline: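 Colonies from cation-adjusted Mueller Hinton agar are grown in broth (3-5 h, 37° C), adjusted by OD600, and added at 2-8×10^5 CFU/mL to 2-fold compound dilutions. After 16-20 h at 37° C, the lowest concentration without growth is taken as MIC.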
# [12] = system: K. pneumoniae UMM producing SHV-5 and KPC-2; assay: Broth microdilution MIC in CAMHB; settings: Klebsiella pneumoniae, read-out: Minimum Inhibitory Concentration, K. pneumoniae UMM
# Outline: as §3
Structure (SMILES),MIC [1] [µg/mL],MIC [2] [µg/mL],MIC [3] [µg/mL],MIC [4] [µg/mL],MIC [5] [µg/mL],MIC [6] [µg/mL],MIC [7] [µg/mL],MIC [8] [µg/mL],MIC [9] [µg/mL],MIC [10] [µg/mL],MIC [11] [µg/mL],MIC [12] [µg/mL]
"CCN1CCN(C(=O)NC(C(=O)N[C@H]2Cc3cccc(C(=O)O)c3OB2O)c2cc(C#N)c(O)cc2F)C(=O)C1=O (stereo partly drawn) [Example 209, (3R)-3-(2-(5-cyano-2-fluoro-4-hydroxyphenyl)-2-(4-ethyl-2,3-dioxopiperazine-1-carboxamido)acetamido)-2-hydroxy-3,4-dihydro-2H-benzo[e][1,2]oxaborinine-8-carboxylic acid]",16 to 32,4 to 8,16 to 32,4 to 8,16 to 32,4 to 8,0.25 to 0.5,16 to 32,8 to 16,< 0.25,> 128,32 to 64
"O=C(O)c1cccc2c1OB(O)[C@@H](NC(=O)C(NC(=O)N1CCN(C3CNC3)C(=O)C1=O)c1c(F)cc(O)cc1F)C2 (stereo partly drawn) [Example 212, (3R)-3-(2-(4-(azetidin-3-yl)-2,3-dioxopiperazine-1-carboxamido)-2-(2,6-difluoro-4-hydroxyphenyl)acetamido)-2-hydroxy-3,4-dihydro-2H-benzo[e][1,2]oxaborinine-8-carboxylic acid]",> 64,> 64,> 64,16 to 32,> 64,16 to 32,1 to 2,> 64,8 to 16,0.5 to 1,> 128,8 to 16
"CCN1CCN(C(=O)NC(C(=O)N[C@H]2Cc3cccc(C(=O)O)c3OB2O)c2c(F)cc(NC(=O)NC)cc2F)C(=O)C1=O (stereo partly drawn) [Example 213, (3R)-3-(2-(2,6-difluoro-4-(3-methylureido)phenyl)-2-(4-ethyl-2,3-dioxopiperazine-1-carboxamido)acetamido)-2-hydroxy-3,4-dihydro-2H-benzo[e][1,2]oxaborinine-8-carboxylic acid]",> 64,16 to 32,> 64,1 to 2,> 64,4 to 8,< 0.125,> 64,2 to 4,< 0.25,> 128,32 to 64
